Measured values reported in publication PMC5793121 (Toxins, 2018).
“And” between values parts separate entries of the source, which are not always exact repeats. Equal values may be shown once. “Also recorded” adds a separate entry of the source. No end group written: not given here.

What was measured:
[1] = molecular target: T1, human neuronal homopentameric α7 nAChR (Homo sapiens, UniProt P36544); assay: Calcium imaging of ACh-evoked [Ca2+]i rise in Neuro2a cells expressing α7 nAChR; type: cell-based; settings: 10 μM ACh (EC50); transfected Neuro2a cells, PNU120596 10 μM; 15 min preincubation; mean ± SEM, 4 independent experiments; read-out: IC50, inhibition of ACh-evoked calcium response of α7 nAChR
T1 construct: expressed in transfected cells; host or cells: mouse neuroblastoma Neuro2a, transient transfection (α7 nAChR-pCEP4) with human Ric-3 (Ric3-pCMV6-XL5, OriGene)
Method: Mouse neuroblastoma Neuro2a cells were purchased from the Russian collection of cell cultures (Institute of Cytology, Russian Academy of Sciences, Saint Petersburg, Russia). Cells were cultured in DMEM (Paneco, Moscow, Russia) supplemented with 10% FBS. They were sub-cultured the day before transfection and were plated at a density of 10,000 cells per well in a 96-well black plate. On the next day Neuro2a cells were transiently transfected with plasmids coding mouse muscle α1β1δε nAChR (pRBG4-vector) and a fluorescent calcium sensor Case12 (pCase12-cyto vector, Evrogen, Moscow, Russia) in a molar ratio of 2:1 following a lipofectamine transfection protocol (ThermoFisher Scientific, Waltham, MA, USA). […]
The plates were transferred to the multimodal microplate reader Hidex Sence (Hidex, Turku, Finland) where the cells were excited by light of 485 nm wavelength and emitted fluorescence was detected at 535 ± 10 nm. Fluorescence was recorded every 2 s for three minutes following agonist addition. Responses were measured as peak intensity minus basal fluorescence level and were expressed as a percentage of the maximal response obtained to agonist. Data files were analyzed using Hidex Sence software (Hidex, Turku, Finland) and OriginPro 7.5 software (OriginLab, Northampton, MA, USA, for statistical analysis).

[2] = system: human neuronal heteromeric α3-containing nAChRs (α3β2, α3β4, etc.); type: cell-based
[3] = in vivo; settings: male, ICR, mouse, in vivo
Method: Az acute toxicity was estimated for its intravenous (iv) and intramuscular (im) administration to male ICR mice in a stepwise procedure.
For the iv route of administration, 20 mice were randomly divided in 5 groups of 4 animals each. The animals of each group received a single dose of Az (0.3, 0.4, 0.5, 0.6, or 0.7 mg/kg, respectively) injected into the lateral tail vein at a volume of 1 mL/kg. For the im route of administration, first two experimental groups of 3 animals each were formed. Az at doses of 0.75 and 1.0 mg/kg, respectively, was injected into the quadriceps muscle of the thigh (quadriceps femoris muscle) of two mouse hind limbs at a volume of 0.5 mL/kg to each muscle. Then, five experimental groups of 5 animals each were formed. Az was injected into the quadriceps muscle of the thigh (quadriceps femoris muscle) of the two hind limbs of male ICR mice at doses of 0.8, 0.775, 0.75, 0.725 and 0.7 mg/kg. The injection volume to each limb was 1 mL/kg. Further, neurotoxic manifestations were recorded in animals at 5, 10, 20, 30, 60 and 90 min and 24 h after administration using the functional observation battery, the number of death was counted as well.
For the iv and im route of administration, the median lethal dose (LD50) was calculated using a probit analysis. For the im route of administration, the maximum tolerated dose was determined.
Rocuronium was administered intramuscularly at doses of 0.13 mg/kg (n = 1), 0.1 mg/kg (n = 4) and 0.08 mg/kg (n = 4) in the triceps of the forelimbs of male ICR mice (8–9 weeks old). Control animals were injected with saline (n = 4). The volume of administration was 0.5 mL/kg in each limb.

[4] = system: male ICR mice; type: in vivo, mouse; settings: 7-day im 0.15 and 0.5 mg/kg
Method: For carrying out these experiments 90 male ICR mice were used, they were divided equally into three groups (30 animals per group) for each study and in these groups they were subdivided into subgroups of 10 mice each and treated as follows: mice of the first subgroup were injected with normal saline im, the second subgroup animals were treated with Az (0.15 mg/kg im) and the animals of the third subgroup were treated with Az (0.50 mg/kg im). The drugs were injected into the quadriceps muscle of the thigh (musculus quadriceps femoris) daily for seven days (1 mL/kg).
On the last 7th day of the Az administration, the mice of the second group (30 animals) were immunized intraperitoneally with a 1:1 mixture of 200 μL of bovine serum albumin (BSA, 0.5 mg/mL) with a complete Freund’s adjuvant. 10 days after the 1st immunization, the mice received the second 200 μL ip injection of the antigen (BSA, 0.5 mg/mL) in an incomplete Freund’s adjuvant (1:1 ratio).

[5] = system: GABAA (α1β3γ2 or α2β3γ2) receptors; settings: concentration up to 100 μM; cited from earlier work

T1 sequence (P36544 23-502): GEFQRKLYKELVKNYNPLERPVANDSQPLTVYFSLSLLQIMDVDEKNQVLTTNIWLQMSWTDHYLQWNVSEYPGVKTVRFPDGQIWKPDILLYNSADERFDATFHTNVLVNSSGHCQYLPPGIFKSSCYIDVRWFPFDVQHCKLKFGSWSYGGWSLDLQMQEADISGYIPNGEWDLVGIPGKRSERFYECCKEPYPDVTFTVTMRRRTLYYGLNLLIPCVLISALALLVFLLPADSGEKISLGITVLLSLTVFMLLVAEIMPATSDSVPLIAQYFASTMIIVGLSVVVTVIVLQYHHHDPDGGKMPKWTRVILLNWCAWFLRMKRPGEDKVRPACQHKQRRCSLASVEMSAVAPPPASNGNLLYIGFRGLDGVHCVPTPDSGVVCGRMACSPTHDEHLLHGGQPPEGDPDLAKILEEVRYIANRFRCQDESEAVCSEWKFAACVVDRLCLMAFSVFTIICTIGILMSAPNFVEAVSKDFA

DNWWPKPPHQGPRPPRPRPKP-NH2 [Az, azemiopsin]
IC50 [1]: 2670 nM and ~3000 nM
activity against α3-containing nAChRs (nicotine-evoked calcium responses) [2]: no Az activity; also recorded: no effect
LD50 at 24 h ([3]; im): 0.732 ± 0.13 mg/kg
MTD at 24 h ([3]; im): 0.7 mg/kg
LD50 at 24 h ([3]; iv): 0.51 mg/kg
immune response to BSA (IgG titers in blood serum) [4]: did not demonstrate any significant difference
activity against GABAA receptors [5]: no activity
